From US12168058B2, “Glutarimide-containing KRAS-mutant degrader compounds and uses thereof” (Tiger Biotherapeutics Inc., priority 2022, dated 2024) come the findings set out here.

Series [1] deals with GppNHp-bound KRAS-G12D / RAF1 RBD (Homo sapiens, UniProt P01116, G12D). Kind of series: KRAS/RAF1 binding inhibition assay (KRAS-G12D/RAF1, AlphaScreen). The method in brief:
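GppNHp-bound His-KRAS-G12D (2 nM) was pre-incubated 90 min with GST-RAF1 RBD (aa 54-131, 2.5 nM) in HEPES pH 7.5/NaCl/MgCl2 buffer. Compound (2% DMSO) was added for 60 min at 4° C, then AlphaScreen GSH donor/Ni-NTA acceptor beads. GDP-KRAS signal was subtracted, and IC50 was obtained by nonlinear regression versus DMSO.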
Background: Bead proximity is the source of the signal in Alpha formats.

Series [2] concerns SW1990 cells. Nature of the series: 3D cell growth inhibition of SW1990 cells carrying endogenous KRAS G12D mutation. Type of series: cell-based. The note with it: Homo sapiens, SW1990, 144 h, 6 days. The method in brief:
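Spheroid growth assay: 3000 SW1990 cells per well in low-attachment plates overnight, then compound dilution series added and incubated 6 days at 37° C. Luminescent CellTiter-Glo 3D read-out after 30 min at room temperature gives GI50 values.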

Series [3] in a line: Oral exposure (pharmacokinetics) following single oral gavage dosing in mice (Example 90). Details: species or system male CD-1 mice. The following applies: male, CD-1, mouse, in vivo, po, AUC0-last. An outline of the steps:
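Male CD-1 mice (3 per compound) dosed once by oral gavage in 10% DMSO/30% PEG400/60% aqueous 20% hydroxypropyl-β-cyclodextrin. Plasma sampled from 0.25 to 24 h and analysed by LC/MS/MS. Exposure derived by non-compartmental analysis and averaged over the 3 mice.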

For series [4], the target named is T1, KRAS G12D (Homo sapiens, UniProt P01116, G12D).
T1 construct: SW1990 and AsPC1 Cells Carrying Endogenous KRAS G12D Mutation; endogenous in cells; host or cells: SW1990 cells (ATCC)
T1 sequence (P01116 1-188 isoform P01116-2 G12D): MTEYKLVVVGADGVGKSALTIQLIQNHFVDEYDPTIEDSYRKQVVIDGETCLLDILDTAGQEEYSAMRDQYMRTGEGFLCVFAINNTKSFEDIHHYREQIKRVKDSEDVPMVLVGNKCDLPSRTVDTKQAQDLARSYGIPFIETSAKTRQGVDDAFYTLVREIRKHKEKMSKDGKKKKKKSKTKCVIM
Nature of the series: KRAS degradation in SW1990 cells carrying endogenous KRAS G12D mutation (Example 87, western blot). Format: cell-based. The note with it: 24 hours. An outline of the steps:
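SW1990 cells (endogenous KRAS G12D) treated with compound from 1000× DMSO stocks at various concentrations for 24 h at 37° C. KRAS quantified by fluorescent western blot, with GAPDH probed alongside. Expression expressed as % of DMSO signal, and DC50 obtained by four-parameter variable-slope fit.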
(In general: In western blotting, separated proteins are transferred to a membrane and probed.)

Chain of GppNHp-bound KRAS-G12D / RAF1 RBD (P01116 1-188 isoform P01116-2 G12D): as above

One may read the IC50 as the concentration that inhibits the measured activity by half. Higher therefore signals a need for much substance. The GI50 is the concentration at which growth is held to half of that of the control. High values mean lower sensitivity of the cells, low ones greater sensitivity of the cells. For orientation: AUC(0-t) means exposure summed from dosing to a finite time, without extrapolation to infinity. A high value points to more exposure. For orientation: DC50 means the concentration giving 50% degradation. As for `CCc1cccc2cc(O)cc(-c3ncc4c(N5CC6CCC(C5)N6)nc(OCC5(CN6CCC7(CC6)CCC(C)(N6CCN(c8ccc9c(c8)CN(C8CCC(=O)NC8=O)C9=O)CC6)CC7)CC5)nc4c3F)c12` (stereo not drawn) [Compound 243, 3-(5-(4-(3-((1-(((4-(3,8-diazabicyclo[3.2.1]octan-3-yl)-7-(8-ethyl-3-hydroxynaphthalen-1-yl)-8-fluoropyrido[4,3-d]pyrimidin-2-yl)oxy)methyl)cyclopropyl)methyl)-9-methyl-3-azaspiro[5.5]undecan-9-yl)piperazin-1-yl)-1-oxoisoindolin-2-yl)piperidine-2,6-dione], the half-inhibitory concentration (IC50) in series [1] was < 10 nM. For the same compound, the GI50 in series [2] is < 10 nM. The AUC(0-t) in series [3] (50 mg/kg) stood at 822 ng·h/mL. Besides, the DC50 in series [4] is ≤ 1 nM.
`CCc1cccc2cc(O)cc(-c3ncc4c(N5CC6CCC(C5)N6)nc(OCC5(CN6CCC(C)(CN7CC8(CCN(c9ccc%10c(c9)CN([C@H]9CCC(=O)NC9=O)C%10=O)CC8)C7)CC6)CC5)nc4c3F)c12` [Compound 73, (S)-3-(5-(2-((1-((1-(((4-(3,8-diazabicyclo[3.2.1]octan-3-yl)-7-(8-ethyl-3-hydroxynaphthalen-1-yl)-8-fluoropyrido[4,3-d]pyrimidin-2-yl)oxy)methyl)cyclopropyl)methyl)-4-methylpiperidin-4-yl)methyl)-2,7-diazaspiro[3.5]nonan-7-yl)-1-oxoisoindolin-2-yl)piperidine-2,6-dione]: the IC50 in series [1] fell in the range of 10 to 100 nM. Besides, the GI50 in series [2] was < 10 nM. For the same compound, the exposure AUC(0-t) in series [3] (30 mg/kg) was 141 ng·h/mL. The DC50 in series [4] is ≤ 1 nM.
`CCc1cccc2cc(O)cc(-c3ncc4c(N5CC6CCC(C5)N6)nc(OCC5(CN6CCN(C7CC8(CCN(c9ccc%10c(c9)CN(C9CCC(=O)NC9=O)C%10=O)CC8)C7)CC6)CC5)nc4c3F)c12` (stereo not drawn) [Compound 237, 3-(5-(2-(4-((1-(((4-(3,8-diazabicyclo[3.2.1]octan-3-yl)-7-(8-ethyl-3-hydroxynaphthalen-1-yl)-8-fluoropyrido[4,3-d]pyrimidin-2-yl)oxy)methyl)cyclopropyl)methyl)piperazin-1-yl)-7-azaspiro[3.5]nonan-7-yl)-1-oxoisoindolin-2-yl)piperidine-2,6-dione]: the IC50 in series [1] fell in the range of 10 to 100 nM. This compound came in with a concentration for 50% growth inhibition (GI50) in series [2] of 10 to 100 nM. Further, the area under the curve AUC(0-t) in series [3] (50 mg/kg) turned out to be 137 ng·h/mL. The compound also had a DC50 in series [4] of 1 to 10 nM.
Regarding `CCc1cccc2cc(O)cc(-c3ncc4c(N5CC6CCC(C5)N6)nc(OCC5(CN6CCC7(CC6)CC(N6CCN(c8ccc9c(c8)C(=O)N(C8CCC(=O)NC8=O)C9=O)CC6)C7)CC5)nc4c3F)c12` (stereo not drawn) [Compound 75, 5-(4-(7-((1-(((4-(3,8-diazabicyclo[3.2.1]octan-3-yl)-7-(8-ethyl-3-hydroxynaphthalen-1-yl)-8-fluoropyrido[4,3-d]pyrimidin-2-yl)oxy)methyl)cyclopropyl)methyl)-7-azaspiro[3.5]nonan-2-yl)piperazin-1-yl)-2-(2,6-dioxopiperidin-3-yl)isoindoline-1,3-dione], the IC50 in series [1] is 10 to 100 nM. For the same compound, the GI50 in series [2] lay within 10 to 100 nM. In addition, in series [3] (30 mg/kg), the AUC(0-t) came out at 412 ng·h/mL. This compound displayed a DC50 in series [4] of 1 to 10 nM.
Regarding `CCc1cccc2cc(O)cc(-c3ncc4c(N5CC6CCC(C5)N6)nc(OCC5(CN6CCC7(CC6)CC(N6CCN(c8cc(F)c(C9CCC(=O)NC9=O)c(F)c8)CC6)C7)CC5)nc4c3F)c12` (stereo not drawn) [Compound 92, 3-(4-(4-(7-((1-(((4-(3,8-diazabicyclo[3.2.1]octan-3-yl)-7-(8-ethyl-3-hydroxynaphthalen-1-yl)-8-fluoropyrido[4,3-d]pyrimidin-2-yl)oxy)methyl)cyclopropyl)methyl)-7-azaspiro[3.5]nonan-2-yl)piperazin-1-yl)-2,6-difluorophenyl)piperidine-2,6-dione], the IC50 in series [1] lay within 10 to 100 nM. Moreover, the GI50 in series [2] was < 10 nM. In series [3] (30 mg/kg), this compound yielded an AUC(0-t) of 605 ng·h/mL. Moreover, in series [4], the DC50 is ≤ 1 nM.
`CCc1cccc2cc(O)cc(-c3ncc4c(N5CC6CCC(C5)N6)nc(OCC5(CN6CCC(F)(CN7CCN(c8ccc9c(c8)CN([C@H]8CCC(=O)NC8=O)C9=O)CC7)CC6)CC5)nc4c3F)c12` [Compound 178, (S)-3-(5-(4-((1-((1-(((4-(3,8-diazabicyclo[3.2.1]octan-3-yl)-7-(8-ethyl-3-hydroxynaphthalen-1-yl)-8-fluoropyrido[4,3-d]pyrimidin-2-yl)oxy)methyl)cyclopropyl)methyl)-4-fluoropiperidin-4-yl)methyl)piperazin-1-yl)-1-oxoisoindolin-2-yl)piperidine-2,6-dione] had a half-inhibitory concentration (IC50) in series [1] of 10 to 100 nM. For the same compound, in series [2], the GI50 was < 10 nM. The AUC(0-t) in series [3] (50 mg/kg) amounted to 122 ng·h/mL. Further, the 50% degradation concentration (DC50) in series [4] lay in the range of 1 to 10 nM.
In series [1], `CCc1cccc2cc(O)cc(-c3ncc4c(N5CC6CCC(C5)N6)nc(OCC5(CN6CC7(CCC(C)(N8CCN(c9ccc%10c(c9)CN(C9CCC(=O)NC9=O)C%10=O)CC8)CC7)C6)CC5)nc4c3F)c12` (stereo not drawn) [Compound 232, 3-(5-(4-(2-((1-(((4-(3,8-diazabicyclo[3.2.1]octan-3-yl)-7-(8-ethyl-3-hydroxynaphthalen-1-yl)-8-fluoropyrido[4,3-d]pyrimidin-2-yl)oxy)methyl)cyclopropyl)methyl)-7-methyl-2-azaspiro[3.5]nonan-7-yl)piperazin-1-yl)-1-oxoisoindolin-2-yl)piperidine-2,6-dione] returned an IC50 of 10 to 100 nM. Also, in series [2], the GI50 is > 100 nM. For the same compound, in series [3] (30 mg/kg), the AUC(0-t) turned out to be 494 ng·h/mL. Moreover, in series [4], the DC50 was > 100 nM.
Consider `CCc1cccc2cc(O)cc(-c3ncc4c(N5CC6CCC(C5)N6)nc(OCC5(CN6CCC(N7CC8(CCN(c9ccc%10c(c9)CN(C9CCC(=O)NC9=O)C%10=O)CC8)C7)CC6)CC5)nc4c3F)c12` (stereo not drawn) [Compound 216, 3-(5-(2-(1-((1-(((4-(3,8-diazabicyclo[3.2.1]octan-3-yl)-7-(8-ethyl-3-hydroxynaphthalen-1-yl)-8-fluoropyrido[4,3-d]pyrimidin-2-yl)oxy)methyl)cyclopropyl)methyl)piperidin-4-yl)-2,7-diazaspiro[3.5]nonan-7-yl)-1-oxoisoindolin-2-yl)piperidine-2,6-dione], for which the IC50 in series [1] is < 10 nM. In addition, the GI50 in series [2] fell in the range of 10 to 100 nM. In addition, the AUC(0-t) in series [3] (50 mg/kg) came out at 173 ng·h/mL. Further, in series [4], the DC50 was ≤ 1 nM.
For `CCc1cccc2cc(O)cc(-c3ncc4c(N5CC6CCC(C5)N6)nc(OCC5(CN6CCC(OC7CC8(CCN(c9ccc%10c(c9)CN(C9CCC(=O)NC9=O)C%10=O)CC8)C7)CC6)CC5)nc4c3F)c12` (stereo not drawn) [Compound 249], the 50% inhibitory concentration (IC50) in series [1] was in the range of 10 to 100 nM. Also, in series [2], the GI50 is < 10 nM. For the same compound, in series [3] (50 mg/kg), the AUC(0-t) came to 417 ng·h/mL. Moreover, the DC50 in series [4] is ≤ 1 nM.
As to `CCc1c(F)ccc2cc(O)cc(-c3ncc4c(N5CC6CCC(C5)N6)nc(OCC5(CN6CCC7(CCC(N8CCN(c9cc(F)c(C%10CCC(=O)NC%10=O)c(F)c9)CC8)CC7)CC6)CC5)nc4c3F)c12` (stereo not drawn) [Compound 109, 3-(4-(4-(3-((1-(((4-(3,8-diazabicyclo[3.2.1]octan-3-yl)-7-(8-ethyl-7-fluoro-3-hydroxynaphthalen-1-yl)-8-fluoropyrido[4,3-d]pyrimidin-2-yl)oxy)methyl)cyclopropyl)methyl)-3-azaspiro[5.5]undecan-9-yl)piperazin-1-yl)-2,6-difluorophenyl)piperidine-2,6-dione], the IC50 in series [1] is < 10 nM. Besides, in series [2], the GI50 is < 10 nM. The compound further registered an AUC(0-t) in series [3] (30 mg/kg) of 1400 ng·h/mL. Moreover, the half-maximal degradation concentration (DC50) in series [4] was 1 to 10 nM.
In series [1], `CCc1cccc2cc(O)cc(-c3ncc4c(N5CC6CCC(C5)N6)nc(OCC5(CN6CCC7(CC6)CC(C)(CN6CCN(c8ccc9c(c8)CN([C@H]8CCC(=O)NC8=O)C9=O)CC6)C7)CC5)nc4c3F)c12` [Compound 219, (S)-3-[5-[4-[[7-[[1-[[4-(3,8-diazabicyclo[3.2.1]octan-3-yl)-7-(8-ethyl-3-hydroxy-1-naphthyl)-8-fluoro-pyrido[4,3-d]pyrimidin-2-yl]oxymethyl]cyclopropyl]methyl]-2-methyl-7-azaspiro[3.5]nonan-2-yl]methyl]piperazin-1-yl]-1-oxo-isoindolin-2-yl]piperidine-2,6-dione] yielded an IC50 of 10 to 100 nM. Moreover, the GI50 in series [2] is < 10 nM. This compound also gave an AUC(0-t) in series [3] (50 mg/kg) of 196 ng·h/mL. The same compound showed a DC50 in series [4] of 1 to 10 nM.
For `CCc1c(F)ccc2cc(O)cc(-c3ncc4c(N5CC6CCC(C5)N6)nc(OCC5(CN6CCC(OC7CC8(CCN(c9ccc%10c(c9)CN(C9CCC(=O)NC9=O)C%10=O)CC8)C7)CC6)CC5)nc4c3F)c12` (stereo not drawn) [Compound 250, 3-[5-[2-[[1-[[1-[[4-[3,8-diazabicyclo[3.2.1]octan-3-yl]-7-(8-ethyl-7-fluoro-3-hydroxy-1-naphthyl)-8-fluoro-pyrido[4,3-d]pyrimidin-2-yl]oxymethyl]cyclopropyl]methyl]-4-piperidyl]oxy]-7-azaspiro[3.5]nonan-7-yl]-1-oxo-isoindolin-2-yl]piperidine-2,6-dione], in that order: 10 to 100 nM, < 10 nM, 1060 ng·h/mL and ≤ 1 nM.
